Experimental data from PMC10766964, “Copper-catalyzed synthesis of pyrazolo[1,5-a]pyrimidine based triazole-linked glycohybrids: mechanistic insights and bio-applications” (Scientific Reports, 2024).
Like-named read-outs stand apart in the source and are kept apart here.

Test system: MDA-MB-231 (human breast cancer) cell line
Assay: MTT cell viability assay in MDA-MB-231 cells
Type: cell-based
Conditions: 72 h
Description: Thus, we screened the synthesized library of pyrazolo[1,5-a]pyrimidin-7-ols 4a–4i. Anticancer activity (in terms of growth inhibition/decreased cell viability with respect to control) of all synthesized compounds (n = 9) was investigated by MTT assay in MDA-MB-231 (human breast cancer) cell line at different concentrations for 72 h. […] Thus, it was aimed to investigate the anticancer activity of a synthesized library of triazole-linked glycohybrids of pyrazolo[1,5-a]pyrimidines. […] The MTT assay was used to investigate the anticancer activity of twenty-seven synthesized compounds on the growth inhibition and decrement in cell viability of MDA-MB-231 (human breast cancer). Different concentrations were tested for 72 h, and the results were compared to a control. MDA-MB-231, a human breast cancer cell line, was cultured under standard conditions. Specifically, they were grown in Dulbecco’s Modified Eagle’s Medium (DMEM) supplemented with 10% heat-inactivated Fetal Bovine Serum (FBS) and 1% penicillin–streptomycin. The cells were maintained as a monolayer in a 100 mm culture plate and were used for experiments before reaching their 8th passage. Subculturing was performed every third-day using trypsin EDTA treatment. All incubation and maintenance procedures were carried out in a humidified CO2 incubator at 37 °C. To evaluate cell viability, the MTT assay was conducted following standard procedures. After 72 h of cell incubation with or without each compound, cell viability was assessed using MTT (3-(4,5-dimethylthiazol-2-yl)-2,5-diphenyltetrazolium bromide), which is a colorimetric method for determining the number of viable cells in various assays including proliferation, cytotoxicity, or chemosensitivity. The MTT reagent was added to the cells after removal of the medium and incubated for 3 h at 37 °C in the CO2 incubator. The formazan product, which is […] in the tissue culture medium, was dissolved in DMSO, and the absorbance of the formazan product was directly measured at 595 nm using a multimode plate reader without additional processing. The absorbance values are directly proportional to the number of viable cells in culture. The percentage of viable cells in each group was determined relative to the untreated control cells.

[1] = Table 1, MDA-MB-231, MTT, read-out: Cell Viability (%) ± SD
[2] = Table 2, MDA-MB-231, MTT, read-out: Cell viability (%) ± SD

SMILES | viability at 10 µM [1] [%] | viability at 25 µM [1] [%] | viability at 50 µM [1] [%] | viability at 10 µM [2] [%] | viability at 25 µM [2] [%] | viability at 50 µM [2] [%]
Cc1ccc(-c2cc(O)n3nccc3n2)cc1 [Compound 4a] | 91.4 ± 4.38 | 85.5 ± 3.74 | 84.4 ± 2.16 | – | – | –
COc1ccc(-c2cc(O)n3nccc3n2)cc1 [Compound 4b] | 85.1 ± 8.53 | 80.1 ± 3.51 | 70.5 ± 5.69 | – | – | –
Oc1cc(-c2ccc(Br)cc2)nc2ccnn12 [Compound 4c] | 100 ± 4.01 | 99.1 ± 3.93 | 96.5 ± 2.89 | – | – | –
Oc1cc(-c2ccc(Cl)cc2)nc2ccnn12 [Compound 4d] | 98.6 ± 2.25 | 95.2 ± 1.96 | 87.2 ± 9.22 | – | – | –
Oc1cc(-c2ccc(F)cc2)nc2ccnn12 [Compound 4e] | 86.6 ± 9.76 | 78.1 ± 3.51 | 69.5 ± 5.69 | – | – | –
Oc1cc(-c2ccc(C(F)(F)F)cc2)nc2ccnn12 [Compound 4f] | 92.2 ± 8.51 | 88.8 ± 8.75 | 72.8 ± 7.02 | – | – | –
CC(C)c1ccc(-c2cc(O)n3nccc3n2)cc1 [Compound 4g, 5-(4-isopropylphenyl)pyrazolo[1,5-a]pyrimidin-7-ol] | 101 ± 5.51 | 98.1 ± 2.51 | 70.5 ± 5.69 | – | – | –
Oc1cc(-c2ccc3ccccc3c2)nc2ccnn12 [Compound 4h] | 89.1 ± 4.09 | 86.5 ± 2.58 | 84.4 ± 7.36 | – | – | –
Oc1cc(-c2ccc3c(c2)OCO3)nc2ccnn12 [Compound 4i] | 96.6 ± 3.36 | 89.1 ± 3.51 | 73.5 ± 6.69 | – | – | –
COc1ccc(-c2cc(OCc3cn([C@@H]4O[C@H](COC(C)=O)[C@@H](OC(C)=O)[C@H](OC(C)=O)[C@H]4OC(C)=O)nn3)n3nccc3n2)cc1 [Compound 9b, (2R,3R,4S,5R,6R)-2-(acetoxymethyl)-6-(4-(((5-(4-methoxyphenyl)pyrazolo[1,5-a]pyrimidin-7-yl)oxy)methyl)-1H-1,2,3-triazol-1-yl)tetrahydro-2H-pyran-3,4,5-triyl triacetate] | – | – | – | 95.4 ± 5.38 | 85.5 ± 6.74 | 83.4 ± 4.16
CC(=O)OC[C@H]1O[C@@H](n2cc(COc3cc(-c4ccc(Br)cc4)nc4ccnn34)nn2)[C@H](OC(C)=O)[C@@H](OC(C)=O)[C@@H]1OC(C)=O [Compound 9c, (2R,3R,4S,5R,6R)-2-(acetoxymethyl)-6-(4-(((5-(4-bromophenyl)pyrazolo[1,5-a]pyrimidin-7-yl)oxy)methyl)-1H-1,2,3-triazol-1-yl)tetrahydro-2H-pyran-3,4,5-triyl triacetate] | – | – | – | 100 ± 8.01 | 100 ± 8.93 | 99.5 ± 2.89
CC(=O)OC[C@H]1O[C@@H](n2cc(COc3cc(-c4ccc(F)cc4)nc4ccnn34)nn2)[C@H](OC(C)=O)[C@@H](OC(C)=O)[C@@H]1OC(C)=O [Compound 9e, (2R,3R,4S,5R,6R)-2-(acetoxymethyl)-6-(4-(((5-(4-fluorophenyl)pyrazolo[1,5-a]pyrimidin-7-yl)oxy)methyl)-1H-1,2,3-triazol-1-yl)tetrahydro-2H-pyran-3,4,5-triyl triacetate] | – | – | – | 98.6 ± 2.25 | 92.2 ± 1.96 | 81.2 ± 9.22
CC(=O)OC[C@H]1O[C@@H](n2cc(COc3cc(-c4ccc(C(F)(F)F)cc4)nc4ccnn34)nn2)[C@H](OC(C)=O)[C@@H](OC(C)=O)[C@@H]1OC(C)=O [Compound 9f, (2R,3R,4S,5R,6R)-2-(acetoxymethyl)-6-(4-(((5-(4-(trifluoromethyl)phenyl)pyrazolo[1,5-a]pyrimidin-7-yl)oxy)methyl)-1H-1,2,3-triazol-1-yl)tetrahydro-2H-pyran-3,4,5-triyl triacetate] | – | – | – | 92.2 ± 8.51 | 88.8 ± 8.75 | 73.8 ± 7.02
